# From US20150218213A1, “INHIBITORS OF ALPHA6 INTEGRIN/E-CADHERIN COMPLEX” (Università degli Studi di Torino, priority 2012, published 2015)
# B1: angiopoietin-like 6: secreted factor; recombinant protein from Alexis Biochemicals, or produced by transduced U293 cells (protein)
# chain: RAGAPRCTYTFVLPPQKFTGAVCWSGPASTRATPEAANASELAALRMRVGRHEELLRELQRLAAADGAVAGEVRALRKESRGLSARLGQLRAQLQHEAGPGAGPGADLGAEPAAALALLGERVLNASAEAQRAAARFHQLDVKFRELAQLVTQQSSLIARLERLCPGGAGGQQQVLPPPPLVPVVPVRLVGSTSDTSRMLDPAPEPQRDQTQRQQEPMASPMPAGHPAVPTKPVGPWQDCAEARQAGHEQSGVYELRVGRHVVSVWCEQQLEGGGWTVIQRRQDGSVNFFTTWQHYKAGFGRPDGEYWLGLEPVYQLTSRGDHELLVLLEDWGGRGARAHYDGFSLEPESDHYRLRLGQYHGDAGDSLSWHNDKPFSTVDRDRDSYSGNCALYQRGGWWYHACAHSNLNGVWHHGGHYRSRYQDGVYWAEFRGGAYSLRKAAMLIRPLKL
# How the values were obtained:
# [1] = test system: primary CRC cell lines; assay: Liver adhesion assay on frozen sections of grossly normal human liver; type: cell-based
# Description: (§1) (FIG. 10A, […]) The receptor side: α6 integrin and E-cadherin are involved in the adhesion of metastatic CRC cells to the liver. HepG2 and NCI-H630 cells were incubated on 10-μm frozen sections of grossly normal human liver and adhered cells were fixed, stained and counted under a light microscope at 20× magnification. Photomicrographs representative of cell numbers (120 minutes' incubation) and morphology (5 days' incubation) are shown. The dotted line indicates a micrometastasis-like structure integrated into the hepatic tissue; arrowheads point to cell aggregates. Tissues were counterstained with hematoxylin (FIG. 10A). NCI-H630 cells silenced for ITGA6, CDH1 or both of these mRNAs were challenged in the same assay (FIG. 10B). Results are shown as mean±standard deviation for each experimental point in 3 independent experiments. (FIG. 10C) The ligand side: the […] (SEQ ID NO: 14) motif and angiopoietin-like 6 interact specifically with cells expressing the receptor proteins. Phage binding was investigated on NCI-H630 cells in which ITGA6, CDH1 or both mRNAs were silenced. Results, normalized to fd-tet binding, are shown as mean±standard deviation of 4 independent experiments. The same cells were evaluated for their capacity to adhere to the […] […] After 48 hours, cells on the lower side of the transwell membranes were fixed, stained and counted under a light microscope at 5× magnification. […] (SEQ ID NO: 14) or control peptide; after 30 minutes, adhered cells were fixed, stained and counted under a light microscope at 5× magnification. For NCI-H630, adhesion was evaluated on liver sections from 27 patients (Patient Ids: P29, P30, P33, P34, P35, P36, P56-76) and results are shown as the ratio of attached cells in the presence of […] […] In FIG. 10A-D, FIG. 10F and FIG. 10G, differences in the experimental points were evaluated for their statistical significance by the use of ANOVA followed by Bonferroni's post-test. […] Fourteen days after surgery, animals were sacrificed and livers were explanted and photographed for the quantification of external tumor areas. […]
# [2] = test system: NCI-H630 cells; assay: as above; type: cell-based; details: liver sections from 27 patients, versus control peptide, 30 minutes
# Description: as §1
# [3] = test system: U293 cells stably overexpressing E-cadherin, α6 integrin or both; assay: Cell proliferation assay (crystal violet); type: cell-based, human; details: 100 μM peptide, complete (10% FCS) medium; FIG. 12
# Description: U293 cells stably overexpressing E-cadherin, α6 integrin or both were grown in complete (10% FCS) culture medium in the presence of either the control or […] (SEQ ID NO: 14) peptide. At 24 hour time points, cells were fixed and stained with crystal violet; their numbers were estimated by spectrophotometric evaluation. Results are shown as mean±standard deviation for each experimental point in 2 independent experiments.
# To test the effects of peptides on cell proliferation, we seeded 2×10^4 cells per well in a 24-well plate, in the presence of either control or […] (SEQ ID NO: 14) peptide (100 μM). At the indicated time points, cells were fixed in glutaraldehyde, stained in crystal violet, and solubilized in 10% acetic acid. Cell growth was evaluated by absorbance at 590 nm in a microplate reader (Perkin Elmerm Waltham, Mass.). A calibration curve was set up with known numbers of cells and a linear correlation between absorbance and cell counts was established up to 5×10^5 cells/well.
# [4] = test system: HCCM-1544 tumor and CRC cell lines (HCT-116m, SW-48, DLD-1, LS-174T); assay: Liver homing model, intrasplenic implantation of CRC cells with soluble peptide; type: in vivo, CD-1 nude mice; details: 100 μM peptide co-injected, significant in all models except DLD-1
# From the text: To obtain an in vivo model of metastatic CRC, we implanted the patient-derived HCCM-1544 tumor as well as different CRC cell lines (HCT-116m, SW-48, DLD-1 and LS-174T) intrasplenically into CD-1 nude mice (2×10^6/mouse). To evaluate the effect of […] (SEQ ID NO: 14) on liver metastasis, we injected cells either in medium alone (vehicle) or in the presence of the soluble peptide ([…]) (SEQ ID NO: 14). At the indicated time points, mice were euthanized and their livers and spleens were explanted. Livers were photographed for the quantification of external metastatic areas. Representative pictures of whole livers from 2 mice/group are shown for macroscopic evaluation of tumor morphology; the indicated p-values are referred to statistical analysis performed either with Fisher's exact test (in black) or t-test (in red). Spleen (primary tumor) and liver (metastasis) samples were OCT-frozen, cut in 10-μm sections and immunostained with anti-α6 integrin and anti-E-cadherin antibodies, followed by imaging with a confocal microscope. […]
# Six-week female CD1-nude mice were purchased from Charles River (Lecco, Italy). […] Mice were strictly monitored until completely awake, and oral ampicillin was administered for 5 days following the surgery. […] External metastatic areas were quantified using ImageJ software.
# [5] = test system: LS-174T cells; assay: Hepatic colonization model, intrahepatic injection of CRC cells with soluble peptide; type: in vivo, CD-1 nude mice; details: LS-174T intrahepatic, 14 days
# Description: (§2) (FIG. 10A, […]) The receptor side: α6 integrin and E-cadherin are involved in the adhesion of metastatic CRC cells to the liver. HepG2 and NCI-H630 cells were incubated on 10-μm frozen sections of grossly normal human liver and adhered cells were fixed, stained and counted under a light microscope at 20× magnification. Photomicrographs representative of cell numbers (120 minutes' incubation) and morphology (5 days' incubation) are shown. The dotted line indicates a micrometastasis-like structure integrated into the hepatic tissue; arrowheads point to cell aggregates. Tissues were counterstained with hematoxylin (FIG. 10A). […] The same cells were evaluated for their capacity to adhere to the […] […] After 48 hours, cells on the lower side of the transwell membranes were fixed, stained and counted under a light microscope at 5× magnification. […] (SEQ ID NO: 14) or control peptide; after 30 minutes, adhered cells were fixed, stained and counted under a light microscope at 5× magnification. For NCI-H630, adhesion was evaluated on liver sections from 27 patients (Patient Ids: P29, P30, P33, P34, P35, P36, P56-76) and results are shown as the ratio of attached cells in the presence of […] […] In FIG. 10A-D, FIG. 10F and FIG. 10G, differences in the experimental points were evaluated for their statistical significance by the use of ANOVA followed by Bonferroni's post-test. […]
# [6] = test system: NCI-H630 cells in which ITGA6, CDH1 or both mRNAs were silenced; assay: Cell adhesion to microwells coated with peptides and proteins; type: cell-based, human
# Description: as §2
# [7] = test system: β4 integrin subunit; assay: Affinity purification of liver metastasis lysates on column-immobilized peptide, ELISA and phage binding of fractions; details: lysates of human liver metastases, in comparison with the controls; FIG. 8
# Description: (FIG. 8A, FIG. 8B) Isolation of […]- (SEQ ID NO: 14) targeted integrin partners. To identify the molecular partner of α6 integrin in the peptide-targeted complex, synthetic […] (SEQ ID NO. 14) was immobilized on column-packed diaminodipropylamine-agarose and successively loaded with 30 mg of total protein from 7 pooled liver metastases secondary to CRCs. Protein fractions were collected after sequential incubation with high salt buffer (for the elution of unspecific proteins), CARAC-peptide (SEQ ID NO. 43) (as a negative control) and […]-peptide (SEQ ID NO. 14) (target elution). Protein amounts in collected fractions were followed by reading their OD at 280 nm (FIG. 8A). […] Control (salt, control peptide) and targeted ([…]—1, —2, and —6) (SEQ ID NO. 14) protein fractions (500 ng each) were evaluated for the presence of specific integrin subunits by an ELISA assay (FIG. 8D).
# For the characterization of proteins targeted by […] […] Protein amounts in collected fractions were followed by reading their OD at 280 nm, and selected fractions were concentrated by the use of Microcon centrifugal filter devices with cut-off 10,000 (Millipore) to remove residual synthetic peptides. Proteins were quantified with the Coomassie (Bradford) Protein Assay Kit (Pierce), and 500 ng of each sample was evaluated for the presence of specific integrin subunits with a standard ELISA assay. […]
# [8] = test system: U293 cells stably transduced with α6 integrin, E-cadherin or both; assay: Transwell migration toward an angiopoietin-like 6 gradient; type: cell-based, human; details: 48 hours
# Description: as §2
Molecule,"adhesiveness on hepatic tissues ([1]; HCT-116m, HT-29, SW-48 and DLD-1)",adhesion to normal hepatic tissues ([1]; non-metastatic HCT-116 cells),cell adhesion to human liver sections [2],cell proliferation [3],homing of CRC cells to the liver (liver metastases) [4],liver tumors (external tumor areas) ([5]; 100 μM peptide co-injected),overall morphology and levels of receptor complex in the tumors [5],"cell adherence to microwells coated with peptide ([6]; NCI-H630 with ITGA6 or both mRNAs silenced, most pronounced with both downmodulated)",integrin subunit content of peptide- and phage-targeted protein fractions [7],cell migration toward ligand gradient ([8]; U293 cells expressing both α6 integrin and E-cadherin),cell migration toward ligand gradient ([8]; U293 cells with either α6 integrin or E-cadherin),cell binding to microwells coated with recombinant protein ([6]; NCI-H630 cells in which both mRNAs were silenced)
"CGIYRLRSC (Peptide inhibiting the E-cadherin/alpha6 integrin complex) [Targeting synthetic LRS-motif peptide, from New England Peptides]",significantly inhibited,not influenced,significant decrease in cell adhesion,no effects,diminished homing of CRC cells to the liver,significant reduction of liver tumors,unchanged,impaired adherence,substantial enrichment in the β4 subunit,–,–,–
B1,–,–,–,–,–,–,–,–,–,significantly stimulated,not influenced,significantly lower binding
